Results published in patent US7736861B1, “Tivozanib response prediction” (AVEO Pharmaceuticals, Inc., priority 2009, dated 2010).

Assays:
[1] = test system: murine breast tumors (Her2-dependent, BH archive); test: murine breast tumor response to tivozanib (BH archive tumors transplanted subcutaneously in NCr nude mice); type: in vivo, mouse
Description: A library of more than 100 murine breast tumors (BH archive) was used to identify tumors that are sensitive to tivozanib (responders) and tumors that are resistant to tivozanib (non-responders). The BH archive was established by in vivo propagation and cryopreservation of primary tumor material from more than 100 spontaneous murine breast tumors derived from engineered chimeric mice that develop Her2-dependent, inducible spontaneous breast tumors. The mice were produced essentially as follows.
Tumor cells were isolated by physical disruption of the tumors using cell strainers. Typically 1×10^5 cells were mixed with matrigel (50:50 volume) and injected subcutaneously into female NCr nu/nu mice on upper dorsal region between the shoulder blades. When these tumors grew to approximately 500 mm^3, which typically required 2 to 4 weeks, they were collected for further propagation, drug response testing, and analysis. Analysis included microarray profiling, general histopathology, and IHC (CD31 for tumor vasculature, Ki67 for tumor cell proliferation).
Evaluation of tumor response to tivozanib was performed essentially as follows. Subcutaneously transplanted tumors were established by injecting physically disrupted tumor cells (mixed with Matrigel) into 7 week-old female NCr nude mice. When the tumors reached approximately 200-400 mm^3, 30 tumor-bearing mice were randomized into three groups. Group 1 received vehicle. Group 2 received tivozanib at 5 mg/kg daily by oral gavage. Group 3 received tivozanib at 20 mg/kg daily by oral gavage. Tumors were measured twice per week by a caliper, and tumor volume was calculated. At the end of the treatment, tumors were collected for histopathological analysis and IHC analysis.
Based on tumor growth inhibition and typical histopathological and IHC (CD31) characteristics for angiogenesis inhibition, responders and non-responders were identified. […] The variation in response was expected, because the mouse model tumors had arisen spontaneously, and therefore they were expected to contain differing sets of random mutations that had led to tumorigenesis, including tumor angiogenesis. Such variation in response was desirable, because it was similar to the variation in naturally occurring human tumors, and thus enabled identification of tivozanib-responsive tumors and tivozanib-resistant tumors for use in identifying the molecular signature or tivozanib responsiveness.

VEGF receptor 3 = VEGF receptor 3 (Homo sapiens, UniProt P35916); settings: Nakamura et al., 2006; cited from earlier work
Chain of VEGF receptor 3 (P35916 25-1363): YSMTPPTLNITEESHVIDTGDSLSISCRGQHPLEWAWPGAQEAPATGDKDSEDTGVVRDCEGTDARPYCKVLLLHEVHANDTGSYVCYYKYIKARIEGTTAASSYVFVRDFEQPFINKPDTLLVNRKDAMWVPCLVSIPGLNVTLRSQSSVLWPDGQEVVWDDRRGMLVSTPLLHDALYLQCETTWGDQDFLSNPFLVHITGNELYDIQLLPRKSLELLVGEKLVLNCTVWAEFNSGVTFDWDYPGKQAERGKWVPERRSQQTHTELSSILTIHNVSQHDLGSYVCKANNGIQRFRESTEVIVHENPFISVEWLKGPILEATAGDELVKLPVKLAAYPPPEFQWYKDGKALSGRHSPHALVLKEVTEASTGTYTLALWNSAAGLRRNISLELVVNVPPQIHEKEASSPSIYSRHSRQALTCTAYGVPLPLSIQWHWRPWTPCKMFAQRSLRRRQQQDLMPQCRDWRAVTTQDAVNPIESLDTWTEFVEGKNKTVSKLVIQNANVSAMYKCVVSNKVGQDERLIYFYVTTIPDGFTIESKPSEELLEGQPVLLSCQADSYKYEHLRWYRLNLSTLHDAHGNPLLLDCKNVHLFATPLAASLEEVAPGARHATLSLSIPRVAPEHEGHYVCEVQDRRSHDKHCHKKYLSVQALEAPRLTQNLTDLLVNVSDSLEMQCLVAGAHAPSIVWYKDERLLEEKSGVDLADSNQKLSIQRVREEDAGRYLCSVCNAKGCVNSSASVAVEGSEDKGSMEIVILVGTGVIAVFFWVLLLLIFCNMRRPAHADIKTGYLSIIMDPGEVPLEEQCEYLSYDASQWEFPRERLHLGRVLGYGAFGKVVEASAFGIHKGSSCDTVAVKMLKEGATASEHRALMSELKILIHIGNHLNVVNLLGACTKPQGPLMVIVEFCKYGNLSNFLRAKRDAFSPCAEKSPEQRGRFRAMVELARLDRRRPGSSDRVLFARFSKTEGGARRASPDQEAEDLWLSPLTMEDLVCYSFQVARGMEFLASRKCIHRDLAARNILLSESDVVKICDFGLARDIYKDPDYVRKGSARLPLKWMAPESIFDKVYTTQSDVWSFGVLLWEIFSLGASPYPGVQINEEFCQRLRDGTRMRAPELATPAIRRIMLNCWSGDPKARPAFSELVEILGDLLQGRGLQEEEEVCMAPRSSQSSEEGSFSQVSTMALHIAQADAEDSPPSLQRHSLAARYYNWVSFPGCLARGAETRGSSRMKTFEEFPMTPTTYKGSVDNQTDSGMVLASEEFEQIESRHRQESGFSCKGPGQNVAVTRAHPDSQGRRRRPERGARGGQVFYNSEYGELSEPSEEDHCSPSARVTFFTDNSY

preclinical models = settings: Nakamura et al., 2006; cited from earlier work
[2] = 272-patient Phase 2 clinical trial; Bhargava et al., 2009; cited from earlier work
[3] = of 26 individual murine breast tumors, FIG. 1

Structure (SMILES): COc1cc2nccc(Oc3ccc(NC(=O)Nc4cc(C)on4)c(Cl)c3)c2cc1OC [tivozanib, N-{2-chloro-4-[(6,7-dimethoxy-4-quinolyl)oxy]-phenyl}-N′-(5-methyl-3-isoxazolyl)urea]
- variation in response among tumors ([1]; 5 or 20 mg/kg daily by oral gavage): significant tumor-to-tumor variation in response
- number of tumors classified as non-responsive (tivozanib resistant tumors) [1, 3]: 18
- number of tumors classified as responsive (tivozanib sensitive tumors) [1, 3]: eight
- tumor progression by caliper measurement ([1]; responder tumors, 5 mg/kg daily by oral gavage): no tumor progression
- tumor killing (by histology) ([1]; responder tumors, 5 mg/kg daily by oral gavage, except the peripheries): close to complete tumor killing
- inhibitory activity (VEGF receptor 3): picomolar
- antitumor activity (preclinical models): exhibits antitumor activity
- interim results of clinical trial [2]: positive interim results
